Experimental data from PMC9653409, “Generative deep learning enables the discovery of a potent and selective RIPK1 inhibitor” (Nature Communications, 2022).
Read-outs that look alike come from different tables or passages of the source.

Assays:
Assay in all cases: Kinase inhibitory activity profiling of RI-962@10 µM (406 kinases, Eurofins)
Assay type in all cases: biochemical
[1] = target: panel of human kinases (kinase named in endpoint) (Homo sapiens, UniProt O15111); settings: 10 µM; read-out: Activity (%), IKKα(h)
Method in brief: (§1)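 Radiometric filter-binding kinase assays: enzyme preincubated 15 min with compound in 8 mM MOPS pH 7.0, 0.2 mM EDTA, 250 μM peptide substrate, 10 mM magnesium acetate, 10 μM [γ-33P]-ATP. Reaction started with Mg/ATP, run 40 min at room temperature, stopped with phosphoric acid; 33P incorporation read by scintillation counting. Other kinases by similar protocols.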

[2] = target: panel of human kinases (kinase named in endpoint) (Homo sapiens, UniProt O96017, I157T); settings: 10 µM; read-out: Activity (%), CHK2(I157T)(h)
Sequence of panel of human kinases (kinase named in endpoint) (Homo sapiens, UniProt O96017, I157T) (O96017 whole entry I157T): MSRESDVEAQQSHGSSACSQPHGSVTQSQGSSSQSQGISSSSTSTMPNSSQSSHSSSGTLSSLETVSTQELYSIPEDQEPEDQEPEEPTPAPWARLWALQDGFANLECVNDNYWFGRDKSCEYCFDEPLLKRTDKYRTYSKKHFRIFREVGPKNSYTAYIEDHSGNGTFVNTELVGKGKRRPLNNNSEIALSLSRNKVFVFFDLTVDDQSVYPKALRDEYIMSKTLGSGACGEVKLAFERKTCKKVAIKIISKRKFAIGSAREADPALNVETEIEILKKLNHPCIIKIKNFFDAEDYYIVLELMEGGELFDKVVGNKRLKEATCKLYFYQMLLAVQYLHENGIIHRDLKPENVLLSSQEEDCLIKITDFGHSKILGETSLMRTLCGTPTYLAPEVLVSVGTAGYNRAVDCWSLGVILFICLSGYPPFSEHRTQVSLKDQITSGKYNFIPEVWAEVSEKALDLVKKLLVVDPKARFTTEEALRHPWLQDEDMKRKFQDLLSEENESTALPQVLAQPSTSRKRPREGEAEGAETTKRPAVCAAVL
Method in brief: as §1

[3] = target: panel of human kinases (kinase named in endpoint) (Homo sapiens, UniProt P00519); settings: 10 µM; read-out: Activity (%), Abl(h)
Method in brief: as §1

[4] = target: panel of human kinases (kinase named in endpoint) (Homo sapiens, UniProt P10721, D816V); settings: 10 µM; read-out: Activity (%), cKit(D816V)(h)
Method in brief: as §1

[5] = target: panel of human kinases (kinase named in endpoint) (Homo sapiens, UniProt P11362); settings: 10 µM; read-out: Activity (%), FGFR1(h)
Method in brief: as §1

[6] = target: panel of human kinases (kinase named in endpoint) (Homo sapiens, UniProt P12931); settings: 10 µM
Sequence of panel of human kinases (kinase named in endpoint) (Homo sapiens, UniProt P12931) (P12931 whole entry): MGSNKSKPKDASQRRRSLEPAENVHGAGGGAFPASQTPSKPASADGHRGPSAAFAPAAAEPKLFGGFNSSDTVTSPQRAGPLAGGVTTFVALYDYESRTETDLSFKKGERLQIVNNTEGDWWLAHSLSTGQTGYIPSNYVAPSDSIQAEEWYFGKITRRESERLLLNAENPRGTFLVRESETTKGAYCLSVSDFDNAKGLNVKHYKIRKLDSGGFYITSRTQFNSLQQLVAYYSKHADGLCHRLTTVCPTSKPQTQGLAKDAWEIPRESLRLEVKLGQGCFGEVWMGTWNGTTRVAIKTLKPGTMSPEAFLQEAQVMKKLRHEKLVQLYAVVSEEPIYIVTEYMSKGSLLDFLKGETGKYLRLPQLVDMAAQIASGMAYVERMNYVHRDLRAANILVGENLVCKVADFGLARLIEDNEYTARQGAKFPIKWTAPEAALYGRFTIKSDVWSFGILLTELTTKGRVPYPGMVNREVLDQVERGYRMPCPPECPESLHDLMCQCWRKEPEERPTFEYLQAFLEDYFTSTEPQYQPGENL
Method in brief: as §1

[7] = target: panel of human kinases (kinase named in endpoint) (Homo sapiens, UniProt P15056, V600E); settings: 10 µM; read-out: Activity (%), B-Raf(V599E)(h)
Method in brief: as §1

[8] = target: panel of human kinases (kinase named in endpoint) (Homo sapiens, UniProt P16234, V561D); settings: 10 µM; read-out: Activity (%), PDGFRα(V561D)(h)
Method in brief: as §1

[9] = target: panel of human kinases (kinase named in endpoint) (Homo sapiens, UniProt P22455); settings: 10 µM; read-out: Activity (%), FGFR4(h)
Method in brief: as §1

[10] = target: panel of human kinases (kinase named in endpoint) (Homo sapiens, UniProt P33981); settings: 10 µM; read-out: Activity (%), TTK(h)
Method in brief: as §1

[11] = target: panel of human kinases (kinase named in endpoint) (Homo sapiens, UniProt P42336); settings: 10 µM
Sequence of panel of human kinases (kinase named in endpoint) (Homo sapiens, UniProt P42336) (P42336 whole entry): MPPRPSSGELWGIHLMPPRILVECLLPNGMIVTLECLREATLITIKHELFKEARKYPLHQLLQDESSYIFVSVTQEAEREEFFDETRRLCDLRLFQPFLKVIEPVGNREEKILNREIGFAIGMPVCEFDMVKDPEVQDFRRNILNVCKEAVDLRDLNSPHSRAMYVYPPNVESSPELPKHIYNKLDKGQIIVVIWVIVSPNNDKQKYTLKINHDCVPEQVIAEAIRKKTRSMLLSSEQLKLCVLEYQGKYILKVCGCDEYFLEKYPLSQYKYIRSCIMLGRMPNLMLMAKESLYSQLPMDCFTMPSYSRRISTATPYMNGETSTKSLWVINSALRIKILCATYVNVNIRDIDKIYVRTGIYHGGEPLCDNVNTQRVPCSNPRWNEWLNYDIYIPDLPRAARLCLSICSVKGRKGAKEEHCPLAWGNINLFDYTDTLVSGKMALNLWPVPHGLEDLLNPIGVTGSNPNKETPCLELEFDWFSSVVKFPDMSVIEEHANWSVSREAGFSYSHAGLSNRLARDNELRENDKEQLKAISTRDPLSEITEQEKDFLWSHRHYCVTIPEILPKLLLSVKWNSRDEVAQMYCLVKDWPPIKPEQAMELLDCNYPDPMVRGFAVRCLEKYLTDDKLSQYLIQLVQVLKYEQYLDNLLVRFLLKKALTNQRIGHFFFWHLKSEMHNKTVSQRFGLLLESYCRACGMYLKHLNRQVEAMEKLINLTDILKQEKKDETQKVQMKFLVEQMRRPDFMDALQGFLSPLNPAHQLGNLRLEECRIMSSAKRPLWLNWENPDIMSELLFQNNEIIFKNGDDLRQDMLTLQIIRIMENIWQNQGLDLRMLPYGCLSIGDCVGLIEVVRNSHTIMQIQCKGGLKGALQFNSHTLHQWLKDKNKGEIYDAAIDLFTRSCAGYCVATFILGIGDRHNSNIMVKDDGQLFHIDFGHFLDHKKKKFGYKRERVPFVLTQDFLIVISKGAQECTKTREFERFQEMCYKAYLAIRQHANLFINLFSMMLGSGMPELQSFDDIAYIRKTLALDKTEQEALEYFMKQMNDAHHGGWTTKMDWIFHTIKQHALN
Method in brief: as §1

[12] = target: panel of human kinases (kinase named in endpoint) (Homo sapiens, UniProt P45983); settings: 10 µM; read-out: Activity (%), JNK1α1(h)
Sequence of panel of human kinases (kinase named in endpoint) (Homo sapiens, UniProt P45983) (P45983 whole entry): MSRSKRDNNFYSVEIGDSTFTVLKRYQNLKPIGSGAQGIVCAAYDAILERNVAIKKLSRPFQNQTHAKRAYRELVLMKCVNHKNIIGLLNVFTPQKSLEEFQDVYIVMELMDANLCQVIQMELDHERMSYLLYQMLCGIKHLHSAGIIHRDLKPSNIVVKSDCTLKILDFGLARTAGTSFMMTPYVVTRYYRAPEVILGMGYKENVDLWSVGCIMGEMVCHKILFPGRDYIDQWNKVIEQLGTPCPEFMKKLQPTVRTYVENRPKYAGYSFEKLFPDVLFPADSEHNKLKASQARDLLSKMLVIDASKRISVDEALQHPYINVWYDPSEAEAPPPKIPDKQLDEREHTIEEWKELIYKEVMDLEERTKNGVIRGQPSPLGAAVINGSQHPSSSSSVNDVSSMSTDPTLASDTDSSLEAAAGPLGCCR
Method in brief: as §1

[13] = target: panel of human kinases (kinase named in endpoint) (Homo sapiens, UniProt P51812); settings: 10 µM; read-out: Activity (%), Rsk2(h)
Method in brief: as §1

[14] = target: panel of human kinases (kinase named in endpoint) (Homo sapiens, UniProt Q00536); settings: 10 µM; read-out: Activity (%), CDK16/cyclinY(h)
Method in brief: as §1

[15] = target: panel of human kinases (kinase named in endpoint) (Homo sapiens, UniProt Q13188); settings: 10 µM; read-out: Activity (%), MST2(h)
Sequence of panel of human kinases (kinase named in endpoint) (Homo sapiens, UniProt Q13188) (Q13188 whole entry): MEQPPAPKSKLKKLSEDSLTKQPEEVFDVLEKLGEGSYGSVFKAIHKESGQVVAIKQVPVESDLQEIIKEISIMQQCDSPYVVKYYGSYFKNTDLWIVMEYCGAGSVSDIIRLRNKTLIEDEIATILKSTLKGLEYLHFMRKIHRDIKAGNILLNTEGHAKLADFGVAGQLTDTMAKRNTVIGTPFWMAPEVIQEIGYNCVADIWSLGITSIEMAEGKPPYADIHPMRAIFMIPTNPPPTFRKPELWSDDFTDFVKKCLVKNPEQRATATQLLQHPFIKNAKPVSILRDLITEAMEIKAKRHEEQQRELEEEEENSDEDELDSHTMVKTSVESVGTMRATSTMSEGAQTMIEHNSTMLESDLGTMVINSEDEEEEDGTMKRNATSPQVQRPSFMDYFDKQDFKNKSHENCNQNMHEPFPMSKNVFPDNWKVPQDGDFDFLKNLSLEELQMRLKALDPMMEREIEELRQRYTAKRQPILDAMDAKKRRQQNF
Method in brief: as §1

[16] = target: panel of human kinases (kinase named in endpoint) (Homo sapiens, UniProt Q13627); settings: 10 µM; read-out: Activity (%), DYRK1A(h)
Method in brief: as §1

[17] = target: panel of human kinases (kinase named in endpoint) (Homo sapiens, UniProt Q14164); settings: 10 µM; read-out: Activity (%), IKKε(h)
Method in brief: as §1

[18] = target: panel of human kinases (kinase named in endpoint) (Homo sapiens, UniProt Q6DT37); settings: 10 µM; read-out: Activity (%), MRCKγ(h)
Sequence of panel of human kinases (kinase named in endpoint) (Homo sapiens, UniProt Q6DT37) (Q6DT37 whole entry): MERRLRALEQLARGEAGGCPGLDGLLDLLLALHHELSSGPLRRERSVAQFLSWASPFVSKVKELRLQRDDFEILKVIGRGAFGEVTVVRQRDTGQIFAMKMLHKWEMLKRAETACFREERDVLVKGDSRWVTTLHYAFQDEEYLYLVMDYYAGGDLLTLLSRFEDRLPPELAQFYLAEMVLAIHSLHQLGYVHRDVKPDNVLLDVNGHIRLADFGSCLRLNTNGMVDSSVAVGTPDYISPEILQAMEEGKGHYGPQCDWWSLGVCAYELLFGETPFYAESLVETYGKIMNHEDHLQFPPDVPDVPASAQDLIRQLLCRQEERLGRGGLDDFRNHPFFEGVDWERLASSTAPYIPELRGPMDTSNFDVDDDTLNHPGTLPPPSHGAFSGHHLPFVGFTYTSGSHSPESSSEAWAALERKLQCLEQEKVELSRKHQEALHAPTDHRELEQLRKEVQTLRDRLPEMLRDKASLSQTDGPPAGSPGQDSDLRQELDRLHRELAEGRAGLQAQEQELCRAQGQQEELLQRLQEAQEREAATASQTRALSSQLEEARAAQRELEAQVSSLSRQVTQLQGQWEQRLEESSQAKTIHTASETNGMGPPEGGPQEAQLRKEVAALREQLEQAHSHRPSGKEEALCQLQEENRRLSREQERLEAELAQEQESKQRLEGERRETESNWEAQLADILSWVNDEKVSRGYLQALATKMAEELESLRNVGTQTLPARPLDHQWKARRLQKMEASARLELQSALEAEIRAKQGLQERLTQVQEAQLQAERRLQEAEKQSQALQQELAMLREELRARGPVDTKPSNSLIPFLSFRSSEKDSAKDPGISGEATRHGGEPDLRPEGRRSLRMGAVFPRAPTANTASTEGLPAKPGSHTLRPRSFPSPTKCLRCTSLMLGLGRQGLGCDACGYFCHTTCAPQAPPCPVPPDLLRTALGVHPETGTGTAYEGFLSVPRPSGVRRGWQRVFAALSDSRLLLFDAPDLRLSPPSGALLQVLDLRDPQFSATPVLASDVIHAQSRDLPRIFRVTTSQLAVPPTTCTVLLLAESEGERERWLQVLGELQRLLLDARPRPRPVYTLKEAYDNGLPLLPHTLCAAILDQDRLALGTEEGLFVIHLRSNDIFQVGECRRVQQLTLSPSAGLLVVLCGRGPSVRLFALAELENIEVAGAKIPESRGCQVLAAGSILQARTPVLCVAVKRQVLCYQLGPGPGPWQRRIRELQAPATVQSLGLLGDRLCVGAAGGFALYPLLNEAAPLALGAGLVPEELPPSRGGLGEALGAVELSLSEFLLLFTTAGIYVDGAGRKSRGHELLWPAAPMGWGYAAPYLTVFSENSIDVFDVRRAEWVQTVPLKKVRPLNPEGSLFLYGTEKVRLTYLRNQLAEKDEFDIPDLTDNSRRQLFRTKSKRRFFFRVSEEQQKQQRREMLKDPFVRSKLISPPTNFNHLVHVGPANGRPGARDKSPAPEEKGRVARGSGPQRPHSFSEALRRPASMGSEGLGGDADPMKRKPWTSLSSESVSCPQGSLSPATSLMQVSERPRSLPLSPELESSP
Method in brief: as §1

[19] = target: panel of human kinases (kinase named in endpoint) (Homo sapiens, UniProt Q8IU85); settings: 10 µM; read-out: Activity (%), CaMKIδ(h)
Sequence of panel of human kinases (kinase named in endpoint) (Homo sapiens, UniProt Q8IU85) (Q8IU85 whole entry): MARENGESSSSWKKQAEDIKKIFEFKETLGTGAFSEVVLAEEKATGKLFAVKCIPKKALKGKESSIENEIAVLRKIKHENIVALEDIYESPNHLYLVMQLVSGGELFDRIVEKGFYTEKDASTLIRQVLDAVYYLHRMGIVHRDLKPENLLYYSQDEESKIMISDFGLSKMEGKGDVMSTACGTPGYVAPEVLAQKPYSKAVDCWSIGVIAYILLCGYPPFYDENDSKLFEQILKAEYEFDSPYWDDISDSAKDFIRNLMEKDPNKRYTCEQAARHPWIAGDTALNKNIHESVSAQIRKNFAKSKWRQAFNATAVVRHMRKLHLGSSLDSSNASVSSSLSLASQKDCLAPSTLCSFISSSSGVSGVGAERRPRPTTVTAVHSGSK
Method in brief: as §1

[20] = target: panel of human kinases (kinase named in endpoint) (Homo sapiens, UniProt Q8N5S9); settings: 10 µM; read-out: Activity (%), CaMKK1(h)
Method in brief: as §1

[21] = target: panel of human kinases (kinase named in endpoint) (Homo sapiens, UniProt Q8TDR2); settings: 10 µM; read-out: Activity (%), CLIK1(h)
Method in brief: as §1

[22] = target: panel of human kinases (kinase named in endpoint) (Homo sapiens, UniProt Q8WXR4); settings: 10 µM; read-out: Activity (%), MYO3B(h)
Method in brief: as §1

[23] = target: panel of human kinases (kinase named in endpoint) (Homo sapiens, UniProt Q96BR1); settings: 10 µM; read-out: Activity (%), SGK3(h)
Method in brief: as §1

[24] = target: panel of human kinases (kinase named in endpoint) (Homo sapiens, UniProt Q9BYT3); settings: 10 µM; read-out: Activity (%), STK33(h)
Method in brief: as §1

[25] = target: panel of human kinases (kinase named in endpoint) (Homo sapiens, UniProt Q9Y2K2); settings: 10 µM; read-out: Activity (%), SIK3(h)
Method in brief: as §1

Work on `CC(C)C(=O)Nc1nc2cc(-c3ccc4c(c3)c(C(=O)NC(C)c3ccccc3)cn4C)ccn2n1` (stereo not drawn) [RI-962] yielded an activity at 10 µM [1] of 101%, an activity at 10 µM [2] of 92% and an activity at 10 µM [3] of 85%. For the same compound, the activity at 10 µM [4] was 97%, the activity at 10 µM [5] was 81% and the activity at 10 µM ([6]; read-out: Activity (%), Src(1-530)(h)) was 95%. It also gave an activity at 10 µM ([6]; read-out: Activity (%), cSRC(h)) of 100%, an activity at 10 µM [7] of 107% and an activity at 10 µM [8] of 102%. The activity at 10 µM [9] was 85%, the activity at 10 µM [10] was 92% and the activity at 10 µM ([11]; read-out: Activity (%), PI3 Kinase (p110a/p65a)(h)) was 97%. The activity at 10 µM ([11]; read-out: Activity (%), PI3 Kinase (p110a/p85a)(h)) was 94%, the activity at 10 µM [12] was 99% and the activity at 10 µM [13] was 106%. For the same compound, the activity at 10 µM [14] was 121%, the activity at 10 µM [15] was 64% and the activity at 10 µM [16] was 96%. It also gave an activity at 10 µM [17] of 103%, an activity at 10 µM [18] of 83% and an activity at 10 µM [19] of 104%. For the same compound, the activity at 10 µM [20] was 56%, the activity at 10 µM [21] was 132% and the activity at 10 µM [22] was 76%. The activity at 10 µM [23] was 132%, the activity at 10 µM [24] was 85% and the activity at 10 µM [25] was 100%.
